Source: US8524902B2, “[1,2,4]triazolo[4,3-f]pteridines useful as inhibitors of protein kinases” (Vertex Pharmaceuticals Incorporated, priority 2006, dated 2013)

Molecular target: T1, Plk1 (Homo sapiens, UniProt P53350)
T1 construct: in the presence of 15 nM Plk1 (A20-K338)
Experiment: Plk1 inhibition assay (radioactive-phosphate incorporation)
Type: biochemical
Settings: Ki(app) from [γ-33P]ATP incorporation, 25° C.
Description: Compounds of the present invention may be evaluated as inhibitors of human PLK kinase using the following assays.
Compounds were screened for their ability to inhibit Plk1 using a radioactive-phosphate incorporation assay. Assays were carried out in a mixture of 25 mM HEPES (pH 7.5), 10 mM MgCl2, and 1 mM DTT. Final substrate concentrations were 50 μM [γ-33P]ATP (136 mCi 33P ATP/mmol ATP, Amersham Pharmacia Biotech/Sigma Chemicals) and 10 μM peptide (SAM68 protein Δ332-443). Assays were carried out at 25° C. in the presence of 15 nM Plk1 (A20-K338). An assay stock buffer solution was prepared containing all of the reagents listed above, with the exception of ATP and the test compound of interest. 30 μL of the stock solution was placed in a 96 well plate followed by addition of 2 μL of DMSO stock containing serial dilutions of the test compound (typically starting from a final concentration of 10 μM with 2-fold serial dilutions) in duplicate (final DMSO concentration 5%). The plate was pre-incubated for 10 minutes at 25° C. and the reaction initiated by addition of 8 μL [γ33P]ATP (final concentration 50 μM).
(§1) The reaction was stopped after 60 minutes by the addition of 100 μL 0.14M phosphoric acid. A multiscreen phosphocellulose filter 96-well plate (Millipore, Cat no. MAPHN0B50) was pretreated with 100 μL 0.2M phosphoric acid prior to the addition of 125 μL of the stopped assay mixture. The plate was washed with 4×200 μL 0.2M phosphoric acid. After drying, 100 μL Optiphase ‘SuperMix’ liquid scintillation cocktail (Perkin Elmer) was added to the well prior to scintillation counting (1450 Microbeta Liquid Scintillation Counter, Wallac).
After removing mean background values for all of the data points, Ki(app) data were calculated from non-linear regression analysis of the initial rate data using the Prism software package (GraphPad Prism version 3.0cx for Macintosh, GraphPad Software, San Diego Calif., USA).
Compounds were screened for their ability to inhibit Plk1 using a radioactive-phosphate incorporation assay. Assays were carried out in a mixture of 25 mM HEPES (pH 7.5), 10 mM MgCl2, 0.1% BSA, and 2 mM DTT. Final substrate concentrations were 150 μM (350 μM for determining values of <1 nM) [γ-33P]ATP (115 mCi 33P ATP/mmol ATP, Amersham Pharmacia Biotech/Sigma Chemicals) and 300 μM (450 μM for determining values of <1 nM) peptide (KKKISDELMDATFADQEAK) SEQ. ID NO. 1. Assays were carried out at 25° C. in the presence of 4 nM (1 nM for determining values of <1 nM) Plk1. An assay stock buffer solution was prepared containing all of the reagents listed above, with the exception of ATP and the test compound of interest. 30 μL of the stock solution was placed in a 96 well plate followed by addition of 2 μL of DMSO stock containing serial dilutions of the test compound (typically starting from a final concentration of 10 μM with 2-fold serial dilutions) in duplicate (final DMSO concentration 5%). The plate was pre-incubated for 10 minutes at 25° C. and the reaction initiated by addition of 8 μl [γ-33P]ATP (final concentration 150 μM (350 μM for determining values of <1 nM))).
as §1, with “90” for “60”, “minutes (240 minutes for determining values of <1 nM)” for “minutes”

T1 sequence (P53350 20-338): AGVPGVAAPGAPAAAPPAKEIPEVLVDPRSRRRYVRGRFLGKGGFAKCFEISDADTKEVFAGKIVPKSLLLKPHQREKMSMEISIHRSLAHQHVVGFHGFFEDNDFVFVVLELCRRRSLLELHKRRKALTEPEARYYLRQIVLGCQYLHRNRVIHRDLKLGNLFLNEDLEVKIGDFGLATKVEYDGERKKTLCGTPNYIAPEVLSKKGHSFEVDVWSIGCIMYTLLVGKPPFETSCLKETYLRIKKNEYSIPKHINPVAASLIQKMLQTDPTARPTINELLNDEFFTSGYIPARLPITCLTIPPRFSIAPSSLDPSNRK

Compound	Ki
CC[C@@H]1c2nncn2-c2cnc(NCc3ccccc3)nc2N1C1CCCC1 [Compound I-31, (R)—N-benzyl-5-cyclopentyl-4-ethyl-4,5-dihydro-[1,2,4]triazolo[4,3-f]pteridin-7-amine]	0.01 to 0.1 µM
CC[C@@H]1c2nncn2-c2cnc(Nc3ccc(C(F)(F)F)nc3)nc2N1C1CCCC1 [Compound I-40, (R)-5-cyclopentyl-4-ethyl-N-(6-(trifluoromethyl)pyridin-3-yl)-4,5-dihydro-[1,2,4]triazolo[4,3-f]pteridin-7-amine]	0.01 to 0.1 µM
CC[C@@H]1c2nncn2-c2cnc(Nc3ccc(N4CCOCC4)cc3)nc2N1C1CCCC1 [Compound I-34, (R)-5-cyclopentyl-4-ethyl-N-(4-morpholinophenyl)-4,5-dihydro-[1,2,4]triazolo[4,3-f]pteridin-7-amine]	< 0.01 µM
CC[C@@H]1c2nncn2-c2cnc(Nc3ccc(C(=O)NC4CCN(C)CC4)cc3OC)nc2N1C1CCCC1 [Compound I-2, 4-((R)-5-cyclopentyl-4-ethyl-4,5-dihydro-[1,2,4]triazolo[4,3-f]pteridin-7-ylamino)-3-methoxy-N-(1-methylpiperidin-4-yl)benzamide]	< 0.01 µM
CC[C@@H]1c2nncn2-c2cnc(Nc3ccc(C(=O)NC)cc3COC)nc2N1C1CCCC1 [Compound I-30, (R)-4-(5-cyclopentyl-4-ethyl-4,5-dihydro-[1,2,4]triazolo[4,3-f]pteridin-7-ylamino)-3-(methoxymethyl)-N-methylbenzamide]	< 0.01 µM
CC[C@@H]1c2nncn2-c2cnc(Nc3ccc(C(=O)NC4CC(F)(F)C4)cc3OC)nc2N1C1CCCC1 [Compound I-17, (R)-4-(5-cyclopentyl-4-ethyl-4,5-dihydro-[1,2,4]triazolo[4,3-f]pteridin-7-ylamino)-N-(3,3-difluorocyclobutyl)-3-methoxybenzamide]	< 0.01 µM
CC[C@@H]1c2nncn2-c2cnc(Nc3ccc(C(=O)NC)cc3C(F)F)nc2N1C1CCCC1 [Compound I-24, (R)-4-(5-cyclopentyl-4-ethyl-4,5-dihydro-[1,2,4]triazolo[4,3-f]pteridin-7-ylamino)-3-(difluoromethyl)-N-methylbenzamide]	< 0.01 µM
CC[C@@H]1c2nncn2-c2cnc(Nc3ccc(C(=O)N[C@@H]4CCOC4)cc3OC)nc2N1C1CCCC1 [Compound I-9, 4-((R)-5-cyclopentyl-4-ethyl-4,5-dihydro-[1,2,4]triazolo[4,3-f]pteridin-7-ylamino)-3-methoxy-N—((R)-tetrahydrofuran-3-yl)benzamide]	< 0.01 µM
CC[C@@H]1c2nncn2-c2cnc(Nc3ccc(C(F)(F)F)cc3F)nc2N1C1CCCC1 [Compound I-20, (R)-5-cyclopentyl-4-ethyl-N-(2-fluoro-4-(trifluoromethyl)phenyl)-4,5-dihydro-[1,2,4]triazolo[4,3-f]pteridin-7-amine]	< 0.01 µM
CC[C@@H]1c2nncn2-c2cnc(Nc3ccc(N4CCCC4)cc3)nc2N1C1CCCC1 [Compound I-42, (R)-5-cyclopentyl-4-ethyl-N-(4-(pyrrolidin-1-yl)phenyl)-4,5-dihydro-[1,2,4]triazolo[4,3-f]pteridin-7-amine]	< 0.01 µM
CC[C@@H]1c2nncn2-c2cnc(Nc3ccc(C(=O)NC)cc3OC)nc2N1C1CCC1 [Compound I-29, (R)-4-(5-cyclobutyl-4-ethyl-4,5-dihydro-[1,2,4]triazolo[4,3-f]pteridin-7-ylamino)-3-methoxy-N-methylbenzamide]	< 0.01 µM
CC[C@@H]1c2nncn2-c2cnc(Nc3ccc(C(=O)NC)cc3F)nc2N1C1CCCC1 [Compound I-16, (R)-4-(5-cyclopentyl-4-ethyl-4,5-dihydro-[1,2,4]triazolo[4,3-f]pteridin-7-ylamino)-3-fluoro-N-methylbenzamide]	< 0.01 µM

Other lines, results leading:

Ki	Compound
< 0.01 µM	CC[C@@H]1c2nncn2-c2cnc(Nc3ccc(C(=O)N(C)C)cc3C)nc2N1C1CCCC1 [Compound I-5, 4-((R)-5-cyclopentyl-4-ethyl-4,5-dihydro-[1,2,4]triazolo[4,3]pteridin-7-ylamino)-N,N,3-trimethylbenzamide]
< 0.01 µM	CC[C@@H]1c2nncn2-c2cnc(Nc3ccccc3)nc2N1C1CCCC1 [Compound I-22, (R)-5-cyclopentyl-4-ethyl-N-phenyl-4,5-dihydro-[1,2,4]triazolo[4,3-f]pteridin-7-amine]
< 0.01 µM	CC[C@@H]1c2nncn2-c2cnc(Nc3ccc(N4CCN(C)CC4)cc3)nc2N1C1CCCC1 [Compound I-32, (R)-5-cyclopentyl-4-ethyl-N-(4-(4-methylpiperazin-1-yl)phenyl)-4,5-dihydro-[1,2,4]triazolo[4,3-f]pteridin-7-amine]
< 0.01 µM	CC[C@@H]1c2nncn2-c2cnc(Nc3ccc(OC(F)F)cc3)nc2N1C1CCCC1 [Compound I-33, (R)-5-cyclopentyl-N-(4-(difluoromethoxy)phenyl)-4-ethyl-4,5-dihydro-[1,2,4]triazolo[4,3-f]pteridin-7-amine]
< 0.01 µM	CC[C@@H]1c2nncn2-c2cnc(Nc3ccc(C(=O)NC4CC4)s3)nc2N1C1CCCC1 [Compound I-15, (R)-5-(5-cyclopentyl-4-ethyl-4,5-dihydro-[1,2,4]triazolo[4,3-f]pteridin-7-ylamino)-N-cyclopropylthiophene-2-carboxamide]
< 0.01 µM	CC[C@@H]1c2nnc(C)n2-c2cnc(Nc3ccc(C(=O)NC4CC4)cc3OC)nc2N1C1CCCC1 [Compound I-13, (R)-4-(5-cyclopentyl-4-ethyl-1-methyl-4,5-dihydro-[1,2,4]triazolo[4,3-f]pteridin-7-ylamino)-N-cyclopropyl-3-methoxybenzamide]
< 0.01 µM	CC[C@@H]1c2nccn2-c2cnc(Nc3ccc(C(=O)NC)cc3OC)nc2N1C1CCCC1 [Compound I-7, 4-((R)-5-cyclopentyl-6-ethyl-5,6-dihydroimidazo[1,2)pteridin-3-ylamino)-3-methoxy-N-methylbenzamide]
< 0.01 µM	CC[C@@H]1c2nncn2-c2cnc(Nc3ccc(C(=O)NC4CC4)cc3OC)nc2N1C1CCCC1 [Compound I-8, (R)-4-(5-cyclopentyl-4-ethyl-4,5-dihydro-[1,2,4]triazolo[4,3-f]pteridin-7-ylamino)-N-cyclopropyl-3-methoxybenzamide]
< 0.01 µM	CC[C@@H]1c2nncn2-c2cnc(Nc3ccc(C(=O)NC)cc3OC)nc2N1C1CCCC1 [Compound I-1, 4-((R)-5-cyclopentyl-4-ethyl-4,5-dihydro-[1,2,4]triazolo[4,3-f]pteridin-7-ylamino)-3-methoxy-N-methylbenzamide]
< 0.01 µM	CC[C@@H]1c2nncn2-c2cnc(Nc3ccc(-n4cccn4)cc3)nc2N1C1CCCC1 [Compound I-39, (R)—N-(4-(1H-pyrazol-1-yl)phenyl)-5-cyclopentyl-4-ethyl-4,5-dihydro-[1,2,4]triazolo[4,3-f]pteridin-7-amine]
< 0.01 µM	CCNC(=O)c1ccc(Nc2ncc3c(n2)N(C2CCCC2)[C@H](CC)c2nncn2-3)c(F)c1 [Compound I-19, (R)-4-(5-cyclopentyl-4-ethyl-4,5-dihydro-[1,2,4]triazolo[4,3-f]pteridin-7-ylamino)-N-ethyl-3-fluorobenzamide]
< 0.01 µM	CC[C@@H]1c2nncn2-c2cnc(Nc3ccc(N4CCN(C)CC4)nc3)nc2N1C1CCCC1 [Compound I-41, (R)-5-cyclopentyl-4-ethyl-N-(6-(4-methylpiperazin-1-yl)pyridin-3-yl)-4,5-dihydro-[1,2,4]triazolo[4,3-f]pteridin-7-amine]
< 0.01 µM	CC[C@@H]1c2nncn2-c2cnc(Nc3cccnc3)nc2N1C1CCCC1 [Compound I-25, (R)-5-cyclopentyl-4-ethyl-N-(pyridin-3-yl)-4,5-dihydro-[1,2,4]triazolo[4,3-f]pteridin-7-amine]
